Laboratory results published in PubChem BioAssay (NCI).
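How tested: cells in 96-well plates exposed to compound for 48 hours at five concentrations. TGI marks complete inhibition of growth.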

Experiments:
Assay in all cases: NCI-60 cell line screen, 48 h
786-0 renal = test system: 786-0 renal
A498 renal = test system: A498 renal
A549 NSCLC = test system: A549 NSCLC
ACHN renal = test system: ACHN renal
BT-549 breast = test system: BT-549 breast
CAKI-1 renal = test system: CAKI-1 renal
CCRF-CEM leukemia = test system: CCRF-CEM leukemia
COLO 205 colon = test system: COLO 205 colon
DLD-1 colon = test system: DLD-1 colon
DMS 273 small cell lung = test system: DMS 273 small cell lung
DU-145 prostate = test system: DU-145 prostate
EKVX NSCLC = test system: EKVX NSCLC
HCC-2998 colon = test system: HCC-2998 colon
HCT-116 colon = test system: HCT-116 colon
HCT-15 colon = test system: HCT-15 colon
HL-60(TB) leukemia = test system: HL-60(TB) leukemia
HOP-18 NSCLC = test system: HOP-18 NSCLC
HOP-62 NSCLC = test system: HOP-62 NSCLC
HOP-92 NSCLC = test system: HOP-92 NSCLC
HS 578T breast = test system: HS 578T breast
HT29 colon = test system: HT29 colon
IGROV1 ovarian = test system: IGROV1 ovarian
K-562 leukemia = test system: K-562 leukemia
KM12 colon = test system: KM12 colon
KM20L2 colon = test system: KM20L2 colon
LOX IMVI melanoma = test system: LOX IMVI melanoma
LXFL 529 NSCLC = test system: LXFL 529 NSCLC
M14 melanoma = test system: M14 melanoma
M19-MEL melanoma = test system: M19-MEL melanoma
MALME-3M melanoma = test system: MALME-3M melanoma
MCF7 breast = test system: MCF7 breast
MDA-MB-231 breast = test system: MDA-MB-231 breast
MDA-N = test system: MDA-N
MOLT-4 leukemia = test system: MOLT-4 leukemia
NCI-H23 lung = test system: NCI-H23 lung
NCI-H522 lung = test system: NCI-H522 lung
NCI/ADR-RES ovarian = test system: NCI/ADR-RES ovarian
OVCAR-3 ovarian = test system: OVCAR-3 ovarian
OVCAR-4 ovarian = test system: OVCAR-4 ovarian
OVCAR-5 ovarian = test system: OVCAR-5 ovarian
OVCAR-8 ovarian = test system: OVCAR-8 ovarian
PC-3 prostate = test system: PC-3 prostate
RPMI-8226 leukemia = test system: RPMI-8226 leukemia
RXF 393 renal = test system: RXF 393 renal
SF-268 CNS = test system: SF-268 CNS
SF-295 CNS = test system: SF-295 CNS
SF-539 CNS = test system: SF-539 CNS
SK-MEL-28 melanoma = test system: SK-MEL-28 melanoma
SK-MEL-5 melanoma = test system: SK-MEL-5 melanoma
SN12C renal = test system: SN12C renal
SNB-19 CNS = test system: SNB-19 CNS
SNB-75 CNS = test system: SNB-75 CNS
SR leukemia = test system: SR leukemia
SW-620 colon = test system: SW-620 colon
T-47D breast = test system: T-47D breast
TK-10 renal = test system: TK-10 renal
U251 CNS = test system: U251 CNS
UACC-257 melanoma = test system: UACC-257 melanoma
UACC-62 melanoma = test system: UACC-62 melanoma
UO-31 renal = test system: UO-31 renal
XF 498 CNS = test system: XF 498 CNS
DMS 114 small cell lung = test system: DMS 114 small cell lung
NCI-H226 lung = test system: NCI-H226 lung
NCI-H460 lung = test system: NCI-H460 lung
RXF-631 renal = test system: RXF-631 renal
SK-MEL-2 melanoma = test system: SK-MEL-2 melanoma
SK-OV-3 ovarian = test system: SK-OV-3 ovarian
SNB-78 CNS = test system: SNB-78 CNS

With `COc1cc2c(c(OC)c1OC)-c1ccc(SC)c(=O)cc1[C@@H](NC(=O)C(F)(F)F)CC2` the TGI (786-0 renal) was 38.6 µM, the TGI (A498 renal) was 1.86 µM and the TGI (A549 NSCLC) was > 100 µM. For the same molecule, the TGI (ACHN renal) was > 72.3 µM, the TGI (BT-549 breast) was > 100 µM and the TGI (CAKI-1 renal) was 10.3 µM. The TGI (CCRF-CEM leukemia) was > 100 µM, the TGI (COLO 205 colon) was < 0.0631 µM and the TGI (DLD-1 colon) was > 100 µM. The TGI (DMS 273 small cell lung) was > 100 µM, the TGI (DU-145 prostate) was > 100 µM and the TGI (EKVX NSCLC) was > 100 µM. The TGI (HCC-2998 colon) was > 71.3 µM, the TGI (HCT-116 colon) was 4.42 µM and the TGI (HCT-15 colon) was > 15.8 µM. For the same molecule, the TGI (HL-60(TB) leukemia) was 0.194 µM, the TGI (HOP-18 NSCLC) was > 100 µM and the TGI (HOP-62 NSCLC) was > 100 µM. For the same molecule, the TGI (HOP-92 NSCLC) was 0.105 µM, the TGI (HS 578T breast) was 71.1 µM and the TGI (HT29 colon) was 0.182 µM. For the same molecule, the TGI (IGROV1 ovarian) was > 100 µM, the TGI (K-562 leukemia) was > 85.2 µM and the TGI (KM12 colon) was < 0.0631 µM. For the same molecule, the TGI (KM20L2 colon) was < 0.0115 µM, the TGI (LOX IMVI melanoma) was > 87.3 µM and the TGI (LXFL 529 NSCLC) was > 100 µM. The TGI (M14 melanoma) was 42.5 µM, the TGI (M19-MEL melanoma) was > 100 µM and the TGI (MALME-3M melanoma) was > 88.1 µM. For the same molecule, the TGI (MCF7 breast) was > 82.2 µM, the TGI (MDA-MB-231 breast) was > 100 µM and the TGI (MDA-N) was < 0.01 µM. For the same molecule, the TGI (MOLT-4 leukemia) was > 27.2 µM, the TGI (NCI-H23 lung) was > 4.64 µM and the TGI (NCI-H522 lung) was < 0.01 µM. For the same molecule, the TGI (NCI/ADR-RES ovarian) was 79.9 µM, the TGI (OVCAR-3 ovarian) was 1.3 µM and the TGI (OVCAR-4 ovarian) was > 100 µM. For the same molecule, the TGI (OVCAR-5 ovarian) was > 100 µM, the TGI (OVCAR-8 ovarian) was > 72.6 µM and the TGI (PC-3 prostate) was > 100 µM. The TGI (RPMI-8226 leukemia) was > 100 µM, the TGI (RXF 393 renal) was 1.28 µM and the TGI (SF-268 CNS) was 63.9 µM. For the same molecule, the TGI (SF-295 CNS) was < 0.01 µM, the TGI (SF-539 CNS) was < 0.01 µM and the TGI (SK-MEL-28 melanoma) was 17.8 µM. For the same molecule, the TGI (SK-MEL-5 melanoma) was 0.138 µM, the TGI (SN12C renal) was 16.5 µM and the TGI (SNB-19 CNS) was > 100 µM. The TGI (SNB-75 CNS) was 6.29 µM, the TGI (SR leukemia) was > 100 µM and the TGI (SW-620 colon) was > 100 µM. The TGI (T-47D breast) was > 100 µM, the TGI (TK-10 renal) was > 100 µM and the TGI (U251 CNS) was 56.3 µM. For the same molecule, the TGI (UACC-257 melanoma) was > 4.64 µM, the TGI (UACC-62 melanoma) was > 100 µM and the TGI (UO-31 renal) was > 95.7 µM. For the same molecule, the TGI (XF 498 CNS) was 2.37 µM.
In the case of `COc1ccc(OC)c(NC(=O)C(=O)CC(=O)c2sc(-n3nc(-c4ccccc4)cc3-c3ccccc3)nc2C)c1`, the TGI (786-0 renal) is reported as > 100 µM, the TGI (A498 renal) is reported as > 100 µM and the TGI (A549 NSCLC) is reported as > 100 µM. For the same molecule, the TGI (CAKI-1 renal) was > 100 µM, the TGI (CCRF-CEM leukemia) was > 100 µM and the TGI (COLO 205 colon) was > 100 µM. For the same molecule, the TGI (DLD-1 colon) was > 100 µM, the TGI (DMS 114 small cell lung) was > 100 µM and the TGI (DMS 273 small cell lung) was > 100 µM. The TGI (HCC-2998 colon) was > 100 µM, the TGI (HCT-116 colon) was > 100 µM and the TGI (HCT-15 colon) was > 100 µM. The TGI (HL-60(TB) leukemia) was > 100 µM, the TGI (HOP-62 NSCLC) was > 100 µM and the TGI (HT29 colon) was > 100 µM. For the same molecule, the TGI (IGROV1 ovarian) was > 100 µM, the TGI (K-562 leukemia) was > 100 µM and the TGI (KM12 colon) was > 100 µM. For the same molecule, the TGI (KM20L2 colon) was > 100 µM, the TGI (LOX IMVI melanoma) was > 100 µM and the TGI (LXFL 529 NSCLC) was > 100 µM. The TGI (M14 melanoma) was > 100 µM, the TGI (M19-MEL melanoma) was > 100 µM and the TGI (MALME-3M melanoma) was > 100 µM. For the same molecule, the TGI (MOLT-4 leukemia) was > 100 µM, the TGI (NCI-H226 lung) was > 100 µM and the TGI (NCI-H23 lung) was > 100 µM. For the same molecule, the TGI (NCI-H460 lung) was > 100 µM, the TGI (NCI-H522 lung) was > 100 µM and the TGI (OVCAR-3 ovarian) was > 100 µM. For the same molecule, the TGI (OVCAR-4 ovarian) was > 100 µM, the TGI (OVCAR-5 ovarian) was > 100 µM and the TGI (OVCAR-8 ovarian) was > 100 µM. The TGI (RPMI-8226 leukemia) was > 100 µM, the TGI (RXF 393 renal) was > 100 µM and the TGI (RXF-631 renal) was > 100 µM. The TGI (SF-295 CNS) was > 100 µM, the TGI (SF-539 CNS) was > 100 µM and the TGI (SK-MEL-2 melanoma) was > 100 µM. For the same molecule, the TGI (SK-OV-3 ovarian) was > 100 µM, the TGI (SN12C renal) was > 100 µM and the TGI (SNB-19 CNS) was > 100 µM. The TGI (SNB-75 CNS) was > 100 µM, the TGI (SNB-78 CNS) was > 100 µM and the TGI (SR leukemia) was > 100 µM. For the same molecule, the TGI (SW-620 colon) was > 100 µM, the TGI (TK-10 renal) was > 100 µM and the TGI (U251 CNS) was > 100 µM. For the same molecule, the TGI (UACC-257 melanoma) was > 100 µM, the TGI (UACC-62 melanoma) was > 100 µM and the TGI (UO-31 renal) was > 100 µM.
